Measured values taken from patent US20240315993A1, “ANTIPARASITIC COMPOUNDS” (Intervet Inc., priority 2021, published 2024).

Tests used:
[1] = test system: Rhipicephalus microplus tick larvae; assay: Tick larvae contact assay; conditions: read-out: Tick inhibition (% of damage+dead ticks)
Description: Tick larvae (Rhipicephalus microplus) were immersed for approximately 3 minutes in declining concentrations of a test compound (dissolved in a DMSO-emulsifier-deionized water mixture). Tick inhibition (% of damage+dead ticks per test concentration) was assessed approximately 24 hours after contact exposure. The vitality of used parasites was confirmed in negative control groups (i.e. an untreated control and a solvent control).

[2] = test system: Adult fleas (Ctenocephalides felis); assay: Flea feeding assay; conditions: 48 h, read-out: flea inhibition (% of dead+damaged fleas)
Description: Adult fleas (Ctenocephalides felis) of defined age were fed on artificial membranes with blood spiked with declining concentrations of a test compound (dissolved in a DMSO-emulsifier-blood mixture). After approximately 48 hours of continuous feeding, flea inhibition (i.e., % of dead+damaged fleas per test concentration) was assessed. The vitality of used parasites was confirmed in negative control groups (i.e., an untreated control and a solvent control).

[3] = test system: Tick nymphs (stage III, Ornithodoros moubata); assay: Tick feeding assay; conditions: read-out: Tick inhibition (% of damaged+dead ticks at molting-assessment)
Description: Tick nymphs (stage III, Ornithodoros moubata) were fed on artificial membranes with blood spiked with declining concentrations of a test compound (dissolved in a DMSO-emulsifier-blood mixture). Fed nymphs were incubated for around 2-3 weeks to enable tick molting into the next stage. Tick inhibition (i.e, % of damaged+dead ticks at molting-assessment per test concentration) was assessed. The vitality of used parasites was confirmed in negative control groups (i.e., an untreated control and a solvent control).

Rhipicephalus microplus = assay: Cattle - efficacy against one-host tick; assay type: in vivo
Description: Cattle were infested (whole body) with up to 3000 Rhipicephalus microplus larvae two or three times per week before and after the treatment day (Day 0). Cattle of treatment groups were treated subcutaneously or topically (spray or pour-on) at a dose of 1 mg/kg bodyweight of a test compound. As subcutaneous formulation either 2-pyrrolidon 50%/Tween 80 50% or NMP 60%/PEG300 40% was used. As topical formulation either a spray solution (DMF/Emulsifier 2%/tap water 98%) (Compound 4) or a DMA 92%/DEET 8% pour-on solution (all other compounds) or a pour-on solution containing Imwitor 988 (20%)+Miglyol 840 (QS) (Compound 453 and Compound 466) or a pour-on solution containing Miglyol 840 (QS) (Compound 453) was used. Cattle of the negative control group received only the formulation excipients of the respective administration route.
Fully engorged female ticks dropping from cattle were collected daily after treatment and counted in treatment and control groups. Efficacy was expressed using the standard ADEQ analysis method (ADEQ calculation in accordance with WAAVP guidelines for evaluating the efficacy of acaricides against ticks on ruminants; Veterinary parasitology 136 (2006) 29-43). Compounds with efficacy ≥80 percent were found active/effective. Onset of efficacy means the first Day with efficacy ≥80 percent. Duration of efficacy means the last Day with efficacy ≥80 percent.

[4] = test system: bed bugs (Cimex lectularius); assay: Guinea pig - efficacy against bed bug; assay type: in vivo; conditions: for effective to control bed bugs: 5 mg/kg
Procedure, shortened: (§1)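 Guinea pigs given 5 mg/kg test compound orally (gavage) or s.c. in 10% DMF/emulsifier plus 90% water for injection, with local co-infestations of Ornithodoros moubata juveniles and Cimex lectularius at several post-treatment times. Engorged parasites scored dead/damaged about 24 h after collection; % inhibition versus pretreatment baseline by modified Schneider-Orelli formula.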

[5] = test system: Mobile stages of sea lice (pre-adults, adults of Lepeophtheirus salmonis); assay: Adult sea lice contact assay; conditions: read-out: EC50 (sea lice inhibition, dead+damaged)
Description: Mobile stages of sea lice (i.e., pre-adults, adults of Lepeophtheirus salmonis) were exposed to seawater spiked with declining concentrations of a test compound (dissolved in a PEG sea-water mixture). Sea lice inhibition (% of dead+damaged sea lice) was assessed after approximately 1 and 24 hours of continuous exposure in comparison to a negative (solvent) control group.

[6] = test system: Rhipicephalus sanguineus or Haemaphysalis elliptica ticks; assay: Dog - efficacy against ticks; assay type: in vivo; conditions: for therapeutic efficacy against ticks (active = efficacy ≥80 percent): D2
Description: (§2) Beagle dogs were infested (whole body) with 80 Ctenocephalides felis fleas and 50 Rhipicephalus sanguineus or Haemaphysalis elliptica ticks (sex ratio 1:1) two days before the treatment day (Day 0), and repeatedly thereafter. Dogs of treatment groups were treated with 10 mg/kg bodyweight of a test compound orally (compound weighed in gelatin capsule), topically (spot-on, DMA 92%/DEET 8%) or subcutaneously (PEG 200 90%/water for injection 10%). Dogs of the negative control group received only an empty gelatin capsule orally and the spot-on formulation excipients topically.
(§3) Compounds with efficacy ≥80 percent were found active.

[7] = test system: juvenile soft ticks (Ornithodoros moubata); assay: Guinea pig - efficacy against argaside tick; assay type: in vivo
Procedure, shortened: as §1

[8] = test system: Ctenocephalides felis fleas; assay: Dog - efficacy against fleas; assay type: in vivo; conditions: for therapeutic efficacy against fleas (active = efficacy ≥80 percent): D2
Description: as §2, §3

[9] = test system: Copepodids (juvenile sea lice stage of Lepeophtheirus salmonis); assay: Juvenile sea lice contact assay; conditions: Lepeophtheirus salmonis, 24 h, read-out: Sea lice inhibition (% of dead+damaged copepodids)
Description: Copepodids (juvenile sea lice stage of Lepeophtheirus salmonis) were exposed to seawater spiked with declining concentrations of a test compound (dissolved in a DMSO sea-water mixture). Sea lice inhibition (% of dead+damaged copepodids) was assessed after approximately 24 hours of continuous exposure. The vitality of used parasites was confirmed in a negative (solvent) control group.

[10] = test system: Fly larvae I (Lucilia cuprina); assay: Fly larvae contact/feeding assay; conditions: 48 h, read-out: Inhibition of fly larvae development
Description: Fly larvae I (Lucilia cuprina) were grown in medium spiked with declining concentrations of a test compound (dissolved in a DMSO-emulsifier-deionized water mixture). Inhibition of fly larvae development (%) was assessed after approximately 48 hours of continuous exposure. The vitality of used parasites was confirmed in negative control groups (i.e., an untreated control and a solvent control).

[11] = 1 mg/kg topical (Compound 4: spray solution; others: DMA 92%/DEET 8% pour-on)
[12] = 5 mg/kg subcutaneous, after 7 days
[13] = 5 mg/kg subcutaneous, after 10 days
[14] = 5 mg/kg subcutaneous, after 14 days
[15] = 5 mg/kg subcutaneous, after 17 days

O=C(Nc1ccc(F)cc1)c1cc(NC(=O)[C@H]2[C@H](c3cc(Cl)cc(Cl)c3)C2(Cl)Cl)ccc1F (racemic) [Compound 4] showed an inhibition at 25 µM [1] of at least 80%, an inhibition at 100 ppm [1] of 80% and an inhibition at 1 ppm [2] of 80%. The inhibition at 1 ppm [3] was 80%, the “duration of efficacy (last Day with efficacy ≥80 percent)” value (Rhipicephalus microplus; 1 mg/kg subcutaneous) was 38 days and the “onset of efficacy (first Day with efficacy ≥80 percent)” value (Rhipicephalus microplus; 1 mg/kg subcutaneous) was 2 days. For the same compound, the “duration of efficacy (last Day with efficacy ≥80 percent)” value (Rhipicephalus microplus; [11]) was 58 days, the “onset of efficacy (first Day with efficacy ≥80 percent)” value (Rhipicephalus microplus; [11]) was 3 days and the “activity against bed bugs (≥80% inhibition, killed+damaged)” value ([4]; 5 mg/kg oral, Day 0) was “immediate activity”. For the same compound, the “activity against bed bugs (≥80% inhibition, killed+damaged)” value ([4]; 5 mg/kg oral, after 7 days) was “activity”, the “activity against bed bugs (≥80% inhibition, killed+damaged)” value ([4]; 5 mg/kg oral, after 10 days) was “activity” and the “activity against bed bugs (≥80% inhibition, killed+damaged)” value ([4]; 5 mg/kg oral, after 14 days) was “activity”. The “activity against bed bugs (≥80% inhibition, killed+damaged)” value ([4]; 5 mg/kg subcutaneous, Day 0) was “immediate activity”, the “activity against bed bugs (≥80% inhibition, killed+damaged)” value [4, 12] was “activity” and the “activity against bed bugs (≥80% inhibition, killed+damaged)” value [4, 13] was “activity”. The “activity against bed bugs (≥80% inhibition, killed+damaged)” value [4, 14] was “activity”, the “activity against bed bugs (≥80% inhibition, killed+damaged)” value [4, 15] was “activity” and the “effective to control bed bugs” value ([4]; at least until Day 10, both administration routes (oral, subcutaneous)) was 100%. The “effective to control bed bugs” value ([4]; for at least one week, both administration routes) was 100%, the EC50 [5] was 0.01 to 0.025 µM and the “efficacy against ticks in dogs (conclusion)” value ([6]; 10 mg/kg) was “therapeutic efficacy”. The “therapeutic efficacy against ticks (active = efficacy ≥80 percent)” value ([6]; 10 mg/kg oral) was “active”, the “therapeutic efficacy against ticks (active = efficacy ≥80 percent)” value ([6]; 10 mg/kg subcutaneous) was “active” and the “activity against tick nymphs (≥80% inhibition, killed+damaged)” value ([7]; 5 mg/kg oral, Day 0) was “immediate activity”. The “activity against tick nymphs (≥80% inhibition, killed+damaged)” value ([7]; 5 mg/kg oral, after 7 days) was “activity”, the “activity against tick nymphs (≥80% inhibition, killed+damaged)” value ([7]; 5 mg/kg oral, after 10 days) was “activity” and the “activity against tick nymphs (≥80% inhibition, killed+damaged)” value ([7]; 5 mg/kg oral, after 14 days) was “activity”. The “activity against tick nymphs (≥80% inhibition, killed+damaged)” value ([7]; 5 mg/kg subcutaneous, Day 0) was “immediate activity”, the “activity against tick nymphs (≥80% inhibition, killed+damaged)” value [7, 12] was “activity” and the “activity against tick nymphs (≥80% inhibition, killed+damaged)” value [7, 13] was “activity”. The “activity against tick nymphs (≥80% inhibition, killed+damaged)” value [7, 14] was “activity”, the “activity against tick nymphs (≥80% inhibition, killed+damaged)” value [7, 15] was “activity” and the “effective to control ticks” value ([7]; 5 mg/kg, at least until Day 10, both administration routes (oral, subcutaneous)) was 100%. For the same compound, the “effective to control ticks” value ([7]; 5 mg/kg, for at least one week, both administration routes) was 100%, the “duration of efficacy, subcutaneous compared with oral administration” value ([7]; 5 mg/kg, ticks and bed bugs) was “longer duration of efficacy” and the “efficacy against fleas in dogs (conclusion)” value ([8]; 10 mg/kg) was “therapeutic efficacy”. For the same compound, the “therapeutic efficacy against fleas (active = efficacy ≥80 percent)” value ([8]; 10 mg/kg oral) was “active”, the “therapeutic efficacy against fleas (active = efficacy ≥80 percent)” value ([8]; 10 mg/kg subcutaneous) was “active” and the “active against fleas up to (efficacy ≥80 percent)” value ([8]; 10 mg/kg subcutaneous, repeated infestations) was 86 D. The inhibition at 0.1 µM [9] was at least 80% and the inhibition at 100 ppm [10] was 80%.
